Structures can show the parent of a compound that is named as a salt. Peptide text beside a SMILES is read from it. * marks the point of attachment. Cbz = O=C(OCc1ccccc1)*
What was measured:
[1] = system: induced Gem9 cells (geminin overexpressing HME cells); test: Cell cycle progression, PI labeling and FACS; format: cell-based, human; conditions: Gem9 induced 72 h; for effect on cell cycle progression: then drug 24 h, vs DMSO, ZM447439 5 μM, Nocodazole 250 ng/ml, Taxol 10 μM
Experimental: (§1) Breast cancer cell lines were maintained in RPMI medium (Invitrogen, Carlsbad, Calif.) supplemented with 10% FBS and antibiotics. Maintenance of HME cells was performed as described previously. Cells were treated with 5 μM […] (Toronto Research Chemicals Inc., North York, ON), 100 ng/ml colcemid (Sigma, St. Louis, Mo.), 250 ng/ml Nocodazole (Sigma), 10 μM Taxol (Sigma). PI or FITC-conjugated anti-BrdU FACS analysis was performed as in [20]. Annexin-V was performed according to manufacturer's instructions (BD Biosciences, 556547, San Jose, Calif.).
(§2) To evaluate that in detail, HME (or Gem9−Dox) and induced (72 h) Gem9 cells were incubated with 5 μM of ZM447439 (a specific and potent inhibitor of AurB) for an additional 24 h. To measure the effect of ZM447439 on cell cycle progression aliquots from each culture were labeled with PI and analyzed by FACS.
(§3) To evaluate whether these effects were restricted to AurB inhibitors or could be seen with drugs that alter the integrity of the microtubules apparatus as well, HME and induced Gem9 cells were treated with DMSO (control), Nocodazole (a microtubules depolymerizing agent) or Taxol (a microtubules stabilizing agent) for another 24 h. […] However, both treatments also had modest effect on geminin overexpression cells (FIGS. 9C and 9D).
(§4) Low number of dying cells was detected in parental or Gem9 cells in the absence of Dox (FIGS. 13E/1 and 13E/5, 13F/1 and 13F/5 and 13G) or in HME cells in the presence of Dox (FIGS. 13E/2 and 13E/6, 13F/2 and 13F/6 and 13G). […] It was thought that degradation of geminin following c-Abl silencing or inactivation promoted cell death in geminin overexpressing and not normal cells, at least in part, because cells became addicted to high levels of geminin.

HME cells = test: Cell cycle progression, PI labeling and FACS; format: cell-based, human; conditions: for effect on cell cycle progression: normal HME cells, 24 h, vs DMSO, ZM447439 5 μM, Nocodazole 250 ng/ml, Taxol 10 μM
Experimental: as §1, §2, §3, §4

SCID mice = conditions: mouse, in vivo
Experimental: Geminin overexpressing cells were injected subcutaneously or orthotopically (in mammary gland) in SCID mice as described above. When tumors reached 0.5-0.75 cm^3 in volume the treatments were initiated. […] Mice were treated for 5 days and were rested for 2 days and tumor size was measured daily using calipers. At the end of the experiments tumors were dissected out, weighed and fixed in formalin, and cut at 4 μm for histological and immunohistochemical analysis.

[2] = system: induced Gem9 (Gem9+Dox) cells; test: Cell survival, PI/annexin V labeling and FACS; format: cell-based, human; conditions: Gem9 induced 72 h, then drug 24 h; ZM447439 5 μM, Nocodazole 250 ng/ml
Experimental: as §1
(§5) To measure the effect on ZM447439 on cell survival, aliquots from each culture were labeled with PI/annexin V and analyzed by FACS. […] Indeed, in ZM447439 treated cells only 40±5% of the cells were PI^−/V^−, and 41±7% were PI^+/V^− and 20±6% were PI^−/V^++PI^+/V (FIG. 9B). […] Indeed, in ZM447439 treated cells 66±4% of the cells were PI^−/V^−, 24±3% were PI^+/V^− and 10±3% were PI^−/V^++PI^+/V^+ (FIG. 9E).

[3] = system: uninduced Gem9 (Gem9-Dox, HME) cells; test: Cell survival, PI/annexin V labeling and FACS; format: cell-based, human; conditions: 24 h, ZM447439 5 μM, Nocodazole 250 ng/ml
Experimental: as §1, §5

leukemia cells = conditions: cited from earlier work
[4] = system: induced Gem9 cells (geminin overexpressing); test: Metaphase chromosome spread, chromosome condensation; format: cell-based, human
Experimental: (§6) […] Cells were then trypsinized and washed and gently resuspended in PBS. 10 ml of 0.075M KCl was drop wise added and the cells were incubated at 37° C. (in a water bath) for 5-10 mins. Cells were then centrifuged at 900 rpm for 5 minutes and KCl was removed. 5 ml of freshly prepared fixative (3:1 Methanol/Acetic acid) was added drop wise to the cells and carefully mixed. Cells were centrifuged at 900 rpm for 5 minutes and the fixative was removed. This step was repeated 2 more times. Finally, all but 300 μl of the fixative media was removed and cells were dropped from approximately 18 inches onto an angled, humidified microscope slide. Slides were air-dry for at least 10 mins and cells were stained with propidium iodide (PI) or Giemsa.

uninduced Gem9 cells = test: as above; format: cell-based, human; conditions: 10 μM colcemid 1 h
Experimental: as §6

geminin protein = test: Geminin level by western blot of sonicated extracts; format: cell-based, human
Experimental: To study the consequence of silencing or inactivating c-Abl on geminin overexpressing cells, experiments were first undertaken to analyze what happens to geminin protein following c-Abl silencing or inactivation. […] Another Dox treated set of cells were transfected with c-Abl dominant negative construct (i.e. K209R, see Srinivasan and Plattner, 2006) during the last 48 h. Sonicated extracts were then prepared from all cultures and geminin level was measured using western blot analysis. […] Similar effects were also observed in cells endogenously overexpressing geminin.

induced Gem9 cells [5] = test: PI / FITC-anti-BrdU FACS, tetraploid/aneuploid cells; format: cell-based, human; conditions: Gem9 induced 72 h (approximately 35% without treatment); imatinib 10 μM last 24 h, c-Abl silencing 72 h
Experimental: BrdU (20 μM) was added to all cultures during the last 24 h and cultures were collected, labeled with PI and FITC-anti-BrdU antibody and analyzed by FACS.

[6] = system: Gem9/LT subcutaneous tumors; test: Treatment of subcutaneous geminin-driven tumors in SCID mice; format: in vivo, mouse; conditions: imatinib 50 mg/kg/day, day 12
Experimental: (§7) All animal experiments were approved by the University of Hawaii IACUC committee and University of Mississippi Medical Center IACUC committee. Six- to eight-week-old anaesthetized immune-compromised athymic SCID (NOD.CB17-Prkdc^scid/J, Jackson Laboratory) mice were injected with human mammary epithelial (HME) cells (5×10^6) resuspended in 200 μl of HME medium/matrigel (1:1) using a 25-gauge needle. Tumor initiation was defined as the time when tumors were 3 mm in diameter. Mice were sacrificed when the tumors grew to greater than 1.5 cm in diameter or after 12 wks of monitoring. Tumor volume was calculated with the formula 4/3πr^3 (where r is the tumor radius). At the end of the experiments tumors were dissected out, weighed and then fixed in formalin, and subsequently cut at 4 μm for histological and immunohistochemical analysis.
(§8) Tumor formation was analyzed with IVIS luciferase machine (Xenogen, Alameda, Calif.) weekly and tumor size was measured every third day by calipers. To analyze tumor formation using the in vivo system, mice were intraperitoneally injected using a 30G needle with 100 μl of D-luciferin solution (Xenogen) prepared at 15 mg/mL in PBS. […]
(§9) Geminin overexpressing cells were injected subcutaneously or orthotopically (in mammary gland) in SCID mice as described above. […] Mice were treated for 5 days and were rested for 2 days and tumor size was measured daily using calipers. […]

parental HME cells = test: Dying cells under light microscope and TUNEL; format: cell-based, human; conditions: imatinib 10 μM last 48 h, c-Abl siRNA 96 h
Description: (§10) The Fluorescein FragEL™ DNA Fragmentation Detection kit (Calbiochem) was used according to the supplier's protocol.
as §4

induced Gem9 cells [7] = test: Dying cells under light microscope and TUNEL; format: cell-based, human; conditions: Gem9 induced 96 h; imatinib 10 μM last 48 h, c-Abl silencing 96 h
Description: as §10, §4

Gem9/LT mammary tumors = test: Treatment of orthotopic (mammary) geminin-driven tumors in SCID mice; format: in vivo, mouse
Experimental: as §7, §8, §9

p-(S10)-H3 = test: FITC-anti-p-H3-(S10) labeling and FACS; format: cell-based, human; conditions: imatinib 10 μM 24 h, c-Abl silencing 72 h
Description: Diminution of (S10)-H3 phosphorylation leads to chromosome condensation failure, lack of chromosome segregation and induction of aneuploidy (Giet et al., 2001). […] Aliquots of each culture were then fixed, labeled with FITC-anti-p-H3-(S10) specific antibody and analyzed by FACS.

CC(=O)O[C@H]1C(=O)[C@@]2(C)[C@H]([C@H](OC(=O)c3ccccc3)[C@]3(O)C[C@H](OC(=O)[C@H](O)[C@@H](NC(=O)c4ccccc4)c4ccccc4)C(C)=C1C3(C)C)[C@]1(OC(C)=O)CO[C@@H]1C[C@@H]2O [Taxol]
effect on cell cycle progression [1]: modest effect
effect on cell cycle progression (HME cells): triggered accumulation of normal HME cells in G2/M phase, followed by tetraploidy and then cell death

COc1cccc2c1C(=O)c1c(O)c3c(c(O)c1C2=O)C[C@@](O)(C(=O)CO)C[C@@H]3O[C@H]1C[C@H](N)[C@H](O)[C@H](C)O1 [doxorubicin]
toxicity to the mice (SCID mice): adverse side effects including death

COc1cc2c(Nc3ccc(NC(=O)c4ccccc4)cc3)ncnc2cc1OCCCN1CCOCC1 [ZM447439]
effect on cell cycle progression [1]: little effect
effect on cell cycle progression (HME cells): triggered accumulation of normal HME cells in G2/M phase followed by tetraploidy and then cell death
alive cells (PI-/V-) [2]: 66±4%
apoptotic cells (PI-/V+ + PI+/V+) [2]: 10±3%
necrotic cells (PI+/V-) [2]: 24±3%
alive cells (PI-/V-) [3]: 40±5%
apoptotic cells (PI-/V+ + PI+/V+) [3]: 20±6%
necrotic cells (PI+/V-) [3]: 41±7%

CCN(CCCOc1ccc2c(Nc3cc(CC(=O)Nc4cccc(F)c4)n[nH]3)ncnc2c1)CCOP(=O)(O)O [AZD1152]
effect on DNA content of cells (leukemia cells): induce accumulation of cells with greater than 4N DNA content

COC(=O)Nc1nc2ccc(C(=O)c3cccs3)cc2[nH]1 [Nocodazole]
effect on cell cycle progression [1]: modest effect
effect on cell cycle progression (HME cells): triggered accumulation of normal HME cells in G2/M phase, followed by tetraploidy and then cell death
alive cells (PI-/V-) [2]: 78±6%
apoptotic cells (PI-/V+ + PI+/V+) [2]: 10±2%
necrotic cells (PI+/V-) [2]: 12±3%
alive cells (PI-/V-) [3]: 75±5%
apoptotic cells (PI-/V+ + PI+/V+) [3]: 20±5%
necrotic cells (PI+/V-) [3]: 6±4%

CN[C@H]1CCc2cc(OC)c(OC)c(OC)c2-c2ccc(OC)c(=O)cc21 [colcemid]
chromosome condensation ([4]; Gem9 with Dox 7 days, 10 μM colcemid 1 h): failed to condense the chromosomes
chromosome condensation (uninduced Gem9 cells): induced condensation

CC(C)C[C@@H](C=O)NC(=O)[C@H](CC(C)C)NC(=O)[C@H](CC(C)C)NC(=O)OCc1ccccc1 [MG132] (Cbz-Leu-Leu-Leu-aldehyde)
geminin protein level (geminin protein; HME as well as induced Gem9 (72 h) cells, 10 μM MG132 together with 10 μM imatinib, last 24 h): an increase instead of a decrease

Cc1ccc(NC(=O)c2ccc(CN3CCN(C)CC3)cc2)cc1Nc1nccc(-c2cccnc2)n1 [imatinib, imatinib mesylate]
cells with greater than 4N DNA content (tetraploid/aneuploid) (induced Gem9 cells [5]): approximately 6%
subcutaneous tumors after treatment [6]: barely detectable
effect on cell cycle (PI FACS), sub-G1 and >4N cells ([1]; imatinib 10 μM last 24 h, c-Abl silencing 72 h): induced significant increase in sub-G1 and reduced the level of >4N cells
effect on cell cycle (PI FACS) (HME cells; HME cells, imatinib 10 μM last 24 h, c-Abl silencing 72 h): induced G1-arrest
number of dying cells (light microscope, TUNEL+) (parental HME cells): Low level of dying cells
number of dying cells (light microscope, TUNEL+) (induced Gem9 cells [7]): high number of dying cells
mammary tumor size compared with no treatment (Gem9/LT mammary tumors; imatinib 50 mg/kg/day): 5-10 fold
killing of geminin-driven tumors (tumor size) (Gem9/LT mammary tumors; start at 0.5 to 0.7 cm^3, imatinib 50 mg/kg/day, doxorubicin 5 mg/kg/day, 14 days): as effective in killing geminin-driven tumors as doxorubicin
p-(S10)-H3-positive cells (p-(S10)-H3; induced Gem9 cells (approximately 2% without treatment)): approximately 13%
p-(S10)-H3-positive cells (p-(S10)-H3; parental HME cells): reduced the percentage of p(S10)-H3-positive cells
chromosome condensation ([4]; Gem9 with Dox 7 days plus colcemid, imatinib 10 μM last 24 h, c-Abl silencing last 72 h): restored chromosome condensation
endogenous geminin protein level (geminin protein; HME cells, Dox 72 h, imatinib 10 μM last 24 h, c-Abl silencing 72 h): Significant reduction
geminin protein level (geminin protein; MCF7 (ER+) breast cancer cells, imatinib 10 μM or c-Abl silencing): significantly reduced the level of geminin protein
geminin protein level (geminin protein; MDAMB231 (ER-) breast cancer cells, imatinib 10 μM or c-Abl silencing): significantly reduced the level of geminin protein
overexpressed geminin protein level (geminin protein; induced Gem9 cells, Dox 72 h, imatinib 10 μM last 24 h, c-Abl silencing 72 h): Significant reduction

From patent US9075071B1, “Methods for diagnosis and treatment of cancer” (University of Mississippi Medical Center, priority 2012, dated 2015)
